Data from article PMC9923724, “Half sandwich-type osmium, ruthenium, iridium and rhodium complexes with bidentate glycosyl heterocyclic ligands induce cytostasis in platinum-resistant ovarian cancer cells and bacteriostasis in Gram-positive multiresistant bacteria” (Frontiers in Chemistry, 2023).

How the values were obtained:
[1] = system: Capan2 pancreatic adenocarcinoma cells; experiment: SRB assay (48 h) on Capan2 cells; assay type: cell-based
Procedure: 3 × 10^3 Capan2 cells, 2 × 10^3 Saos cells and 8 × 10^3 L428 were plated to 96 well plates. Cells were treated with the compounds in the concentrations for 48 h. Then for Capan2 and Saos SRB assay was performed, L428 cells were counted using a Burker chamber. Data is represented as average ± SD, from three biological replicates; individual assays were performed in duplicates. Values were normalized for vehicle treated cells, absorbance for vehicle treated cells equals to 1. Normality was checked using the Shapiro-Wilk test. The Saos Os-7 dataset was normalized using the Box-Cox method, other datasets had normal distribution. Each complex was individually assessed for statistical significance using One-way ANOVA test followed by Dunnett’s post hoc test; all values were compared to the values of the lowest concentration. For better visibility the p values are presented in an excel sheet at https://figshare.com/s/2c942a812caea8869a67. Non-linear regression was performed on the Capan2 and Saos datasets.
Capan2 cells were maintained in MEM, 10% fetal bovine serum, 1% Penicillin/Streptomycin, 2 mM Glutamine.
The assay was performed similar to ([Kovács et al., 2019]). Cells were seeded in 96 well plates the day before the assay. Cells were treated with the compounds for 48 h. Cells were fixed with 10% trichloroacetic acid (TCA). Fixed cells were washed in distilled water 3 times followed by staining with SRB (0.4 m/V% dissolved in 1% acetic acid) for 10 min. Stained cells were washed in 1% acetic acid 5 times; acetic acid was removed and cells were left to dry. Protein-bound SRB was released by adding 100 µl 10 mM Tris base. Plates were measured in a plate photometer (Thermo Scientific Multiscan GO spectrophotometer, Waltham, MA, United States) at 540 nm. On each plate wells were designed to contain vehicle-treated cells. In calculations the readings for these wells was considered as 1 and all readings were expressed relative to these values.
Statistical analysis was performed using 8.0.1 version of Graphpad Prism. Values were tested for normal distribution using the D’Agostino and Pearson normality test. When necessary, values were log normalized or were normalized using the Box-Cox normalization method ([Box and Cox, 1964]) as indicated in the figure captions. Non-linear regression was performed using the built-in “[Inhibitor] vs. response—Variable slope (four parameters), least square fit” utility of Graphpad that yielded IC50 and Hill slope values.

[2] = system: primary dermal fibroblasts; experiment: MTT reduction assay (4 h) on primary fibroblasts; assay type: cell-based; conditions: primary human dermal fibroblasts
Procedure: 3 × 10^3 A2780 cells, 2 × 10^3 ID8 cells and 4 × 10^3 primary fibroblasts were plated to 96 well plates. Cells were treated with the compounds in the concentrations indicated for either 4 h for an MTT assay or for 48 h for an SRB assay. Data is represented as average ± SD, from three biological replicates; individual assays were performed in duplicates. Values were normalized for vehicle treated cells, absorbance for vehicle treated cells equals to 1. Statistical significance was assessed using two-way ANOVA test comparing the free ligand and each complex as a complex-ligand pair. Before the test normality was assessed using the D’Agostino-Pearson test. The ID8 SRB Ir-7+L-7 dataset had lognormal distribution. […] All other datasets had normal distribution. For better visibility the p values are presented in an excel sheet at https://figshare.com/s/2c942a812caea8869a67. Non-linear regression was performed on the A2780 SRB and the ID8 SRB datasets.
Human primary dermal fibroblasts were cultured in low glucose DMEM (1 g/L glucose) medium supplemented with 20% fetal calf serum, 2 mM glutamine, 1% penicillin-streptomycin.
MTT reduction assay measures the activity of mitochondrial complex I and can be used to detect toxicity ([Virág et al., 1998]; [Henslee et al., 2016]). The assay was performed similar to ([Bakondi et al., 2003]). Briefly, cells were plated in 96 well plates the day before the assay. Cells were treated with the compounds for 4 h, then MTT was added in 0.5 mg/ml final concentration and cells were incubated at 37°C in a cell incubator. Culture media was removed and the reduced MTT dye was dissolved in dimethyl-sulfoxide (DMSO) and plates were measured in a plate photometer (Thermo Scientific Multiscan GO spectrophotometer, Waltham, MA, United States) at 540 nm. On each plate wells were designed to contain untreated/vehicle-treated cells. In calculations the readings for these wells was considered as 1 and all readings were expressed relative to these values.

[3] = system: vancomycin-resistant Enterococcus (VRE) clinical isolates; experiment: Broth microdilution MIC, clinical VRE isolates; assay type: cell-based, E. faecium; conditions: for MIC against clinical VRE isolates (as a group): 3 clinical VRE isolates; for MIC, VRE 25 051: clinical isolate 25 051, nephrostoma; for MIC, VRE 25 051 / MIC, VRE 25 498 / MIC, VRE 27 085: 2018; for MIC, VRE 25 498: clinical isolate 25 498, rectal swab; for MIC, VRE 27 085: clinical isolate 27 085, wound
Procedure: (§1) The MIC values of the complexes were determined against the reference strains of S. aureus (ATCC29213) and E. faecalis. (ATCC29212) and against clinical VRE and MRSA isolates by microdilution assays (repeated at least twice in duplicates) as described in Materials and Methods. The numbers indicate how many isolates were susceptible to the compound out of those tested; i.e., 1/6 stands for 1 isolate was susceptible out of 6 tested. […] Cells were harvested and lysed. Cellular proteins was separated on a 10% SDS-PAGE gel and were blotted. Blots were probed with 4HNE antibody (top blot), the lower blot was stained with amido black. Arrows point at band of interest. Experiments were repeated three times and a representative blot is shown. On the blots brightness and contrast were adjusted. […] Each was matched to a substance and strain by its position over the x-axis categories. / Ir-7: ND and 0/3 (left plot) and ND and 0/6 (right plot) were matched to E. faecalis/VRE and S. aureus/MRSA by position only.
(§2) We used a set of clinical isloates of S. aureus and E. faecium that were collected at the Medical Center of the University of Debrecen (Hungary) between 01. 01. 2018.—31. 12. 2020. The clinical isolates were identified using a Microflex MALDI-TOF mass spectrometer (Bruker, Billerica, MA, United States). Antibiotic susceptibility of the isolates was tested following the European Committee on Antimicrobial Susceptibility Testing ([EUCAST, 2021]) guidelines valid at the time of collection.
(§3) Microdilution experiments were performed according to the standards of EUCAST ([EUCAST, 2021]). […] The inoculated plates were incubated for 24 h at 37°C then were assessed visually. […] All experiments were performed at least twice in duplicates.

[4] = system: methicillin-resistant Staphylococcus aureus (MRSA) clinical isolates; experiment: Broth microdilution MIC, clinical MRSA isolates; assay type: cell-based; conditions: for MIC against clinical MRSA isolates (as a group): 6 clinical MRSA isolates; for MIC, MRSA 20 426: clinical isolate 20 426, blood, 2020; for MIC, MRSA 24 035: clinical isolate 24 035, wound; for MIC, MRSA 24 035 / MIC, MRSA 24 268 / MIC, MRSA 24 272 / MIC, MRSA 24 328 / MIC, MRSA 24 408: 2018; for MIC, MRSA 24 268: clinical isolate 24 268, throat; for MIC, MRSA 24 272: clinical isolate 24 272, throat; for MIC, MRSA 24 328: clinical isolate 24 328, throat; for MIC, MRSA 24 408: clinical isolate 24 408, bronchial
Procedure: as §1, §2, §3

SMILES | Capan2 SRB Max. (maximal inhibition) [1] | IC50 [1] | Fibroblast MTT Max. (maximal inhibition) [2] | MIC against clinical VRE isolates (as a group) [3] | MIC, VRE 25 051 [3] | MIC, VRE 25 498 [3] | MIC, VRE 27 085 [3] | MIC against clinical MRSA isolates (as a group) [4] | MIC, MRSA 20 426 [4] | MIC, MRSA 24 035 [4] | MIC, MRSA 24 268 [4] | MIC, MRSA 24 272 [4] | MIC, MRSA 24 328 [4] | MIC, MRSA 24 408 [4] | MRSA isolates susceptible out of those tested ([4]; 6 isolates tested, susceptible = MIC up to 40 µM)
Cc1ccc(C(C)C)cc1.F[P-](F)(F)(F)(F)F.O=C(OCC1OC(n2cc(-c3ccc4ccccc4n3)nn2)C(OC(=O)c2ccccc2)C(OC(=O)c2ccccc2)C1OC(=O)c1ccccc1)c1ccccc1.[Cl][Ru+] (mixture of isomers) [Ru-7] | 39.80% | 1390 nM | 23.93% | 5 µM | 5 µM | 5 µM | 5 µM | 5 to 40 µM | 10 µM | 40 µM | 20 µM | 5 µM | 10 µM | 10 µM | 
Cc1c(C)c(C)[c-](C)c1C.F[P-](F)(F)(F)(F)F.O=C(OCC1OC(n2cc(-c3ccc4ccccc4n3)nn2)C(OC(=O)c2ccccc2)C(OC(=O)c2ccccc2)C1OC(=O)c1ccccc1)c1ccccc1.[Cl][Ir+2] (mixture of isomers) [Ir-7] | 48.83% | 1930 nM | 12.81% | no activity | 40< µM | 40< µM | 40< µM | no activity | 40< µM | 40< µM | 40< µM | 40< µM | 40< µM | 40< µM | 
Cc1ccc(C(C)C)cc1.F[P-](F)(F)(F)(F)F.O=C(OCC1OC(n2cc(-c3ccc4ccccc4n3)nn2)C(OC(=O)c2ccccc2)C(OC(=O)c2ccccc2)C1OC(=O)c1ccccc1)c1ccccc1.[Cl][Os+] (mixture of isomers) [Os-7] | 59.11% | 1350 nM | 30.97% | 10 µM | 10 µM | 10 µM | 10 µM | 5 µM | 40< µM | 40< µM | 40< µM | 5 µM | 40< µM | 40< µM | 1 out of the 6
